Measured values taken from patent US5159085A, “2-anilino phenylacetic acid derivatives as inhibitors of PLA2 and lipoxygenase” (American Home Products Corporation, priority 1991, dated 1992).

Assays:
[1] = test system: paw edema induced by exogenous PLA2 (snake, A. piscivorus piscivorus); test: In vivo PLA2 murine paw edema assay; design: species or system mouse (male CD-1)
Experimental: The ability of the compounds of the invention to inhibit paw edema induced by the exogenous administration of PLA2 is measured in the in vivo PLA2 murine paw edema assay.
The assay is carried out as follows:
Non-fasted, male CD-1 mice (8 weeks old; 31-36 grams) are placed in plastic boxes in groups of six. The right hind paw volume is measured using mercury plethysmography (zero time). […] A solution of purified PLA2, from the diamond back cotton mouth snake (A. piscivorus piscivorus) is prepared in saline at a concentration of 6 μg/ml. Fifty (50) μl (0.3 μg) of this PLA2 solution is injected subcutaneously into the right hind paw with a plastic 1 ml plastic syringe (27 gauge, 1" needle). Paw volume of the injected paw is measured again at 10 minutes, 30 minutes and 60 minutes after PLA2 injection. Animals are euthanized with CO2 at the completion of the study.
The paw edema is calculated by subtracting the zero time volume from the volume recorded at each time period. Mean paw edema for each treatment group is then calculated and expressed as (μl±S.E.). Drug effects are expressed as a percent change from control (vehicle) values. Statistical significance is determined by a one-way analysis of variance with LSD comparison to control (p<0.05). ED50 's are determined using repression analysis.

[2] = Rat acute gastroirritation assay; design: species or system rat (male Sprague Dawley); settings: in vivo, po, gastric intubation, read-out: UD50
Experimental: The compounds of the invention are tested in the rat acute gastroirritation assay to examine their potential for causing gastric irritation when administered at doses exceeding the effective dose.
This assay is carried out as follows:
Male Sprague Dawley rats (190-220 g) are fasted for 18 hours prior to drug administration. Rats are divided into groups of 8 and coded (i.e., observer of gastric lesions is not aware of drug treatment). Drugs are dissolved or suspended in 0.5% Tween 80 and administered by gastric intubation in a volume of 1 ml/100 g body weight, control rats receiving only Tween 80. Four hours after drug administration, rats are evaluated by recording the incidence and severity of gastroirritation using the following scoring system: 0) No irritation or lesions; 1) irritation (redness); 2) ≤5 lesions (ulcers); and 3) >5 lesions. Dunnett's test (α=0.05) is used to calculate the mean ±SE of each test group and the statistical significance.

[3] = target: T1, LTD4 (isolated guinea pig trachea) (Cavia porcellus, UniProt Q2NNR5); test: In vitro isolated guinea pig trachea assay, LTD4 antagonist activity; design: species or system guinea pig (male Hartley); settings: Table VII
T1 construct: the neck is opened and the trachea removed; from tissue; host or cells: tracheal rings of male Hartley guinea pigs
T1 sequence (Q2NNR5 1-340): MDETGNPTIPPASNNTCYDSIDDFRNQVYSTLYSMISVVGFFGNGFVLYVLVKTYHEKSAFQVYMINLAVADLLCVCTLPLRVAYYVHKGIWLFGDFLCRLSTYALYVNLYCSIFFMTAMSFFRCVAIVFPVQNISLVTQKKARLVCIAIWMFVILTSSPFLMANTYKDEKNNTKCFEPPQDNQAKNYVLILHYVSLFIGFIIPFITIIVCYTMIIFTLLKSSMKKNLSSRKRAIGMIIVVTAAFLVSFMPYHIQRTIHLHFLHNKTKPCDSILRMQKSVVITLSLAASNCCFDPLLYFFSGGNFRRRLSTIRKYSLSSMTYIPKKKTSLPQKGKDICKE
Experimental: The LTD4 antagonist activity of the compounds of the invention is assessed in the in vitro isolated guinea pig trachea assay. This assay is carried out as follows: Male Hartley guinea pigs (350-400 g) are euthanized by a blow to the head, the neck is opened and the trachea removed. The trachea is maintained in aerated physiological salt solution, cleared of connective tissue and fat and cut into rings approximately 2 mm in width (usually containing two cartilaginous segments per ring). Two pieces of silk suture are then passed through the lumen of the tracheal ring and are tied around the cartilage, one on each side of the trachealis muscle. […] The tracheal rings are maintained at 2 g resting tension and equilibrated for 45 minutes (with frequent washing and readjustment of resting tension). […] All responses to LTD4 in an individual tissue are measured as a percentage of the reference contraction of that tissue to carbachol. LTD4 antagonist activity is determined by comparison of the concentration response curves of LTD4 in the presence and absence of antagonist. Assessment of the relative rightward shift of the antagonist treated curve relative to the solvent (control) treated tissue is calculated as a concentration ratio (Eq. A) and used in subsequent calculations to derive an antagonist pKB value (Eqs B and C). […]

Compound | % Change in Edema 10 min ([1]; 10 mg/kg i.v.) | % Change in Edema 30 min ([1]; 10 mg/kg i.v.) | % Change in Edema 60 min ([1]; 10 mg/kg i.v.) | % Change in Edema 10 min ([1]; 100 mg/kg p.o.) | % Change in Edema 30 min ([1]; 100 mg/kg p.o.) | % Change in Edema 60 min ([1]; 100 mg/kg p.o.) | TD50 at 4 h [2] | Kb [3]
O=C(O)Cc1ccccc1Nc1c(Cl)cccc1Cl [diclofenac, reference compound] | -19% | -15% | -1% | -28% | -38% | -15% | 20 mg/kg | –
O=C(O)Cc1cc(OCc2ccc3ccccc3n2)ccc1Nc1c(Cl)cccc1Cl [Example 2, 2-[(2,6-Dichlorophenyl)amino]-5-(2-quinolylmethoxy)benzene acetic acid] | -45% | -37% | -32% | -52% | -48% | -28% | – | 550 nM
